Patent US11512074B2, “Substituted diamino heterocyclic carboxamide compound and a composition containing the compound and use thereof” (Shenzhen TargetRx, Inc., priority 2018, dated 2022)
Like-named read-outs stand apart in the source and are kept apart here.

What was measured:
MOLM-13 cells = assay: Inhibition of cell MOLM-13 proliferation (CTG assay); format: cell-based; details: Homo sapiens, 72 hours, read-out: MOLM-1 IC50
From the text: (§1) Cell MV-4-11 (ATCC, Cat. No. CRL-9591), cell MOLM-13 (COBIOER, Cat. No. CBP60678), RPMI-1640 (GIBCO, Cat. No. A10491-01), penicillin-streptomycin (GIBCO, Cat. No. 15140-122), fetal bovine serum (GIBCO, Cat. No. 10099-141), phosphate buffer solution PBS (GIBCO, Cat. No. 10010-031), DMSO (Sigma, Cat. No. D8418-1L), CelltiterGlo Assay kit (CTG) (Promega, Cat. No. G7573), 96-well plate with transparent flat bottom and black walls (PerkinElmer, Cat. No. 6005680-50), plate shaker (QILINBEIER, Cat. No. B-9002), centrifuge (Eppendorf, Cat. No. 5804R), CO2 incubator (Thermo Scientific, Cat. No. 371), microscope (OLYMPUS Cat. No. CKX41), multi-plate reader (PerkinElmer, Cat. No. EnVision).
(§2) (2) Preparation of Cell Suspension • a) The medium was collected from the culture bottle and centrifuged at 1000 rpm for 5 min. • b) The supernatant was discarded, and the cells were resuspended in medium containing 10% fetal bovine serum, and counted to prepare a cell suspension (cell viability was greater than 90%). • c) The cell suspension was added into a 96-well plate, with […] in each well, namely 5000 MV-4-11 cells/well; 5000 MOLM-13 cells/well. • d) The cell plate was cultured overnight in a 37° C., 5% CO2 incubator.
(§3) Dilution of Compounds in DMSO: • a) MV-4-11 cells: The compounds were diluted with DMSO from 10 mM to 60 uM, and then subjected to a 3-fold serial gradient dilution in DMSO from 60 uM, resulting in 9 concentrations. • b) MOLM-13 cells: The compounds were diluted with DMSO from 10 mM to 200 uM, and then subjected to a 3-fold serial gradient dilution in DMSO from 200 uM, resulting in 9 concentrations. • c) Compound Taxol was diluted with DMSO from 10 mM to 200 uM, and then subjected to a 3-fold serial gradient dilution in DMSO from 200 uM, resulting in 9 concentrations.
(§4) (4) Treatment of Cells with Compounds (after the Overnight Incubation of the Cell Plate) • a) Each well was replenished with 99 μl of growth medium containing 10% FBS, and then 1 μl of the diluted compound was added to the well. The concentration of DMSO was 0.5%. • b) Concentrations of the tested compounds were: MV-4-11 cells: 300, 100, 33.3, 11.1, 3.7, 1.23, 0.41, 0.137, 0.046, 0 [nM]. • MOLM-13 cells: 1000, 333.3, 111.1, 37.04, 12.35, 4.1, 1.37, 0.46, 0.15, 0 [nM]. • c) Concentrations of control compound Taxol were: 1000, 333.3, 111.1, 37.04, 12.35, 4.12, 1.37, 0.46, 0.15, 0 [nM]. • d) The cell plate was placed in the incubator for 72 hours.
(§5) (5) CTG Assay • a) The test plate was placed at room temperature and equilibrated for 30 minutes, and 60 μl of the culture medium was discarded. • b) 60 μl of CTG reagent (CelltiterGlo kit) was added, and the plate was placed on a rapid plate shaker to shake for 2 min, and then let it stand at room temperature for 20 min. • c) Envision was used to read the values.
(§6) IC50 values were calculated using GraphPad Prism 6 software. The IC50 (half inhibitory concentration) values of the compounds were obtained by the following non-linear fitting formula. Y=Bottom+(Top−Bottom)/(1+10^((Log IC50−X)*HillSlope)) • X: Log value of the compound concentration • Y: Inhibition rate (% inhibition) % inhibition (inhibition rate)=100*(value of the High Control-value of the test compound well)/(value of the High Control-value of the Low Control)

[1] = Pharmacokinetic experiment in rats; format: in vivo, Sprague-Dawley rats; details: rat; for AUC(0-t) / Cmax / Tmax / half-life / AUC(0-inf) / MRT inf: male, Sprague-Dawley, plasma; for AUC(0-inf): read-out: AUCINF_pred; for MRT inf: read-out: MRTINF_pred
Protocol: Six male Sprague-Dawley rats, 7 to 8 weeks old, weighing approximately 210 g, were divided into 2 groups with 3 rats in each group. The pharmacokinetic differences of the compounds were compared after they were administered to the rats at a single dose through vein (in vein 3 mg/kg) or mouth (orally 10 mg/kg).
The rats were fed with standard feed and water, and fasted 16 hours before the experiment. The drugs were dissolved with PEG400 and dimethyl sulfoxide. The blood samples were collected from eyelids at the time point of 0.083, 0.25, 0.5, 1, 2, 4, 6, 8, 12 and 24 hours after administration.
The rats were anesthetized for a short time after inhaling ether, and 300 μL of blood samples was collected from the eyelids and put into test tubes, which contains 30 μL of 1% heparin salt solution. The test tubes were dried overnight at 60° C. prior to use. After the blood sample collection at the last time point, the rats were sacrificed after the ether anesthesia.
Immediately after the collection of the blood samples, the test tubes were gently inverted at least 5 times to ensure the fully mixing and placed on ice. The blood samples were centrifuged at 4° C., 5000 rpm for 5 minutes to separate the plasma from the red blood cells. 100 μL of plasma was pipetted into a clean plastic centrifuge tube, with the name of the compound and time point on it. The plasma was stored at −80° C. before analysis, and LC-MS/MS was used to determine the concentration of the compounds disclosed herein in plasma. Pharmacokinetic parameters were calculated based on the plasma concentrations of each animal at different time points.

MV-4-11 cells = assay: Inhibition of cell MV-4-11 proliferation (CTG assay); format: cell-based; details: Homo sapiens, MV4-11, 72 hours
From the text: as §1, §2, §3, §4, §5, §6

Ba/F3 FLT3-ITD cells = assay: Inhibition of Ba/F3 FLT3-ITD cell proliferation (CTG); format: cell-based; details: 72 hours, read-out: BaF3 [FLT3-ITD] IC50
Protocol: (§7) Cell lines were cultured under the condition of 37° C., 5% CO2 and 95% humidity: cell line Ba/F3 parental (suspended, 3000 cells/well, medium was RPMI-1640+10% FBS+8 ng/ml IL-3), cell line Ba/F3 FLT3-ITD (suspended, 3000 cells/well, medium was RPMI-1640+10% FBS)
(§8) Reagents and materials: Fetal bovine serum (FBS, GBICO, Cat. No. 10099-141), CellTiter-Glo® Luminescent Cell Viability Assay (Promega, Cat. No. G7572), 96-well plate with transparent flat bottom and black walls (Corning®, Cat. No. 3603), control compound AC220 (Selleck, Cat. No. S1526).
(§9) Cell Culture and Inoculation: • 1. Cells in the logarithmic growth phase were harvested and counted using a platelet counter. The cell viability was determined by trypan blue exclusion method to ensure that the cell viability was greater than 90%; • 2. The cell concentration was adjusted and 90 μL of the cell suspension was added into a 96-well plate respectively; • 3. The cells in the 96-well plate were cultured overnight under the condition of 37° C., 5% CO2 and 95% humidity.
(§10) Drug Dilution and Dosing: • 1. The 10-fold drug solutions were prepared with a maximum concentration of 100 μM, which was diluted using a 3.16-fold serial gradient dilution, resulting in 9 concentrations. 10 μL of the drug solutions was added to each well of the 96-well plate inoculated with Ba/F3 parental cells; and each drug concentration was set in triplicate. • 2. The 10-fold drug solutions were prepared with a maximum concentration of 10 μM, which was diluted using a 3.16-fold serial gradient dilution, resulting in 9 concentrations. 10 μL of the drug solutions was added to each well of the 96-well plate inoculated with Ba/F3 FLT3-ITD cells; and each drug concentration was set in triplicate. • 3. The cells in the 96-well plate with drugs were cultured at 37° C., 5% CO2 and 95% humidity for 72 hours, and then CTG analysis was carried out.
(§11) Plate Reading at the End Point: • 1. CTG reagent was thawed and the cell plate was equilibrated to room temperature for 30 minutes; • 2. Equal volume of the CTG solution was added to each well; • 3. The cell plate was shaked on the orbital shaker for 5 minutes to lyse the cells; • 4. The cell plate was placed at room temperature for 20 minutes to stabilize the cold light signal; • 5. The cold light values were read.
(§12) GraphPad Prism 8.0 software was used to analyze the data, and the data was fitted using the non-linear S-curve regression to get a dose-effect curve, and IC50 values were calculated. Cell viability (%)=(Lum of test drug−Lum of medium control)/(Lum of cell control−Lum of medium control)×100%.

Ba/F3 parental cells = assay: Inhibition of Ba/F3 parental cell proliferation (CTG); format: cell-based; details: Mus musculus, BaF3, 72 hours, with IL-3
Protocol: as §7, §8, §9, §10, §11, §12

| Structure (SMILES) | IC50 (MOLM-13 cells) [nM] | AUC(0-t) ([1]; IV 3 mg/kg) [ng·h/mL] | Cmax ([1]; IV 3 mg/kg) [ng/mL] | Tmax ([1]; IV 3 mg/kg) [h] | half-life ([1]; IV 3 mg/kg) [min] | AUC(0-inf) ([1]; IV 3 mg/kg) [ng·h/mL] | MRT inf ([1]; IV 3 mg/kg) [h] | AUC(0-t) ([1]; PO 10 mg/kg) [ng·h/mL] | Cmax ([1]; PO 10 mg/kg) [ng/mL] | Tmax ([1]; PO 10 mg/kg) [h] | half-life ([1]; PO 10 mg/kg) [min] | AUC(0-inf) ([1]; PO 10 mg/kg) [ng·h/mL] | MRT inf ([1]; PO 10 mg/kg) [h] | Vz_pred ([1]; IV 3 mg/kg) [L/kg] | Vz_pred ([1]; PO 10 mg/kg) [L/kg] | F ([1]; PO 10 mg/kg vs IV 3 mg/kg) [%] | IC50 (MV-4-11 cells) [nM] | IC50 (Ba/F3 FLT3-ITD cells) [nM] | IC50 (Ba/F3 parental cells) [µM] |
| --- | --- | --- | --- | --- | --- | --- | --- | --- | --- | --- | --- | --- | --- | --- | --- | --- | --- | --- | --- |
| [2H]C([2H])([2H])C([2H])([2H])c1nc(C(N)=O)c(Nc2ccc(N3CCC(N4CCN(C)CC4)CC3)c(OC)c2)nc1NC1CCOCC1 [Compound T-4, 6-(ethyl-d5)-3-((3-methoxy-4-(4-(4-methylpiperazin-1-yl)piperidin-1-yl)phenyl)amino)-5-((tetrahydro-2H-pyran-4-yl)amino)pyrazine-2-carboxamide] | 13 | 639 | 138 | 0.08 | 271 | 651 | 4.56 | 666 | 61.2 | 4 | 244 | 687 | 8.11 | 30.45 | 87.60 | 31.26 | 1.92 |  |  |
| [2H]C([2H])([2H])Oc1cc(Nc2nc(NC3CCOCC3)c(C([2H])([2H])C([2H])([2H])[2H])nc2C(N)=O)ccc1N1CCC(N2CCN(C)CC2)CC1 [Compound T-6, 6-(ethyl-d5)-3-((3-(methoxy-d3)-4-(4-(4-methylpiperazin-1-yl)piperidin-1-yl)phenyl)amino)-5-((tetrahydro-2H-pyran-4-yl)amino)pyrazine-2-carboxamide] | 11.9 |  |  |  |  |  |  |  |  |  |  |  |  |  |  |  | 2.07 | 69.1 | > 10 |
| [2H]C1([2H])CN(c2ccc(Nc3nc(NC4CCOCC4)c(CC)nc3C(N)=O)cc2OC)CC([2H])([2H])C1N1CCN(C)CC1 [Compound T-7, 6-ethyl-3-((3-methoxy-4-(4-(4-methylpiperazin-1-yl)piperidin-1-yl-3,3,5,5-d4)phenyl)amino)-5-((tetrahydro-2H-pyran-4-yl)amino)pyrazine-2-carboxamide] | 12.7 |  |  |  |  |  |  |  |  |  |  |  |  |  |  |  | 1.64 | 53.9 | 8.43 |
